Source: patent US9663478B2, “Benzotriazine oxides as drugs targeting Mycobacterium tuberculosis” (priority 2011, dated 2017)
Converted amounts (≈) assume the structure as drawn. Where two headings read alike, the source gives them in different places.

Legend:
[1] = tested on: NRP Mtb H37Rv cells; experiment: Low-oxygen recovery assay (LORA) MIC; assay type: cell-based, Mycobacterium tuberculosis; conditions: for MIC: Mycobacterium tuberculosis, H37RV, read-out: LORA MIC - ITR
[2] = tested on: Mtb H37Rv; experiment: TB MIC - SRI, resazurin-based microplate assay; assay type: cell-based, Mycobacterium tuberculosis; conditions: Tables 1-4 and text; for MIC: Mycobacterium tuberculosis, H37RV, read-out: TB MIC - SRI
[3] = tested on: Mtb H37Rv; experiment: TB MIC - ITR (UIC), Institute for Tuberculosis Research; assay type: cell-based, Mycobacterium tuberculosis; conditions: Tables 1-4; for MIC: Mycobacterium tuberculosis, H37RV, read-out: TB MIC - ITR
[4] = tested on: Vero cells

[O-][n+]1nc(N[C@H]2[C@@H]3C[C@H]4C[C@@H](C3)C[C@@H]2C4)[n+]([O-])c2ccccc21 [Compound 8n, 3-((1R,3S,5r,7r)-adamantan-2-ylamino)benzo[e][1,2,4]triazine 1,4-dioxide] was tested, and the “LORA MIC - ITR” value ([1]; NRP Mtb, Tables 1-4 and text) was 2.3 µg/mL, the “TB MIC - SRI” value [2] was 2.5 µg/mL and the “TB MIC - ITR” value [3] was 1.9 µg/mL. For the same molecule, the “Vero Tox CC50” value [4] was 7.3 µg/mL.

For [O-][n+]1nc(NC2CC2)[n+]([O-])c2ccc(F)cc21 [Compound 15ab, 3-(cyclopropylamino)-7-fluorobenzo[e][1,2,4]triazine 1,4-dioxide], the MIC [1] was 3.5 µg/mL (≈ 14.8 µM), the MIC [2] was 0.31 µg/mL (≈ 1.31 µM) and the MIC [3] was 0.93 µg/mL (≈ 3.94 µM). The “Vero Tox CC50” value ([4]; African green monkey, 72 h) was 1.3 µg/mL.

[O-][n+]1nc(NC2CCC2)[n+]([O-])c2ccc(F)cc21 [Compound 15ad, 3-(cyclobutylamino)-7-fluorobenzo[e][1,2,4]triazine 1,4-dioxide] gave an MIC [1] of 0.88 µg/mL (≈ 3.52 µM), an MIC [2] of 0.31 µg/mL (≈ 1.24 µM) and an MIC [3] of 0.4 µg/mL (≈ 1.6 µM). The “Vero Tox CC50” value ([4]; African green monkey, 72 h) was 1.6 µg/mL.

For [O-][n+]1nc(N[C@@H]2C[C@H]3CC[C@@H]2C3)[n+]([O-])c2ccc(F)cc21 [Compound 15am, 3-((1R,2R,4S)-bicyclo[2.2.1]heptan-2-ylamino)-7-fluorobenzo[e][1,2,4]triazine 1,4-dioxide], the MIC ([1]; NRP Mtb, Tables 1-4 and text) was 0.21 µg/mL (≈ 0.723 µM), the MIC [2] was 0.31 µg/mL (≈ 1.07 µM) and the MIC [3] was < 0.12 µg/mL. For the same molecule, the “Vero Tox CC50” value ([4]; African green monkey, 72 h) was <2.5 µg/mL.

In the case of CCNc1n[n+]([O-])c2cc(Cl)ccc2[n+]1[O-] [Compound 15ba, 7-chloro-3-(ethylamino)benzo[e][1,2,4]triazine 1,4-dioxide], the MIC ([1]; NRP Mtb, Tables 1-4 and text) is reported as 0.41 µg/mL (≈ 1.7 µM), the MIC [2] is reported as 1.2 µg/mL (≈ 4.99 µM) and the MIC [3] is reported as < 0.12 µg/mL. For the same molecule, the “Vero Tox CC50” value ([4]; African green monkey, 72 h) was 2.6 µg/mL.

In the case of [O-][n+]1nc(NC2CC2)[n+]([O-])c2ccc(Cl)cc21 [Compound 15bb, 7-chloro-3-(cyclopropylamino)benzo[e][1,2,4]triazine 1,4-dioxide], the MIC ([1]; NRP Mtb, Tables 1-4 and text) is reported as 0.22 µg/mL (≈ 0.871 µM), the MIC [2] is reported as 0.62 µg/mL (≈ 2.45 µM) and the MIC [3] is reported as 0.21 µg/mL (≈ 0.831 µM). For the same molecule, the “Vero Tox CC50” value ([4]; African green monkey, 72 h) was 1.3 µg/mL.

Work on [O-][n+]1nc(NC2CCCCC2)[n+]([O-])c2ccc(Cl)cc21 [Compound 15bf, 7-chloro-3-(cyclohexylamino)benzo[e][1,2,4]triazine 1,4-dioxide] yielded an MIC ([1]; NRP Mtb, Tables 1-4 and text) of 0.63 µg/mL (≈ 2.14 µM), an MIC [2] of 0.62 µg/mL (≈ 2.1 µM) and an MIC [3] of 0.94 µg/mL (≈ 3.19 µM). For the same molecule, the “Vero Tox CC50” value ([4]; African green monkey, 72 h) was 2.6 µg/mL.

Work on [O-][n+]1nc(N[C@@H]2C[C@H]3CC[C@@H]2C3)[n+]([O-])c2ccc(Cl)cc21 [Compound 15bm, 3-((1R,2R,4S)-bicyclo[2.2.1]heptan-2-ylamino)-7-chlorobenzo[e][1,2,4]triazine 1,4-dioxide] yielded an MIC ([1]; NRP Mtb, Tables 1-4 and text) of 0.23 µg/mL (≈ 0.75 µM), an MIC [2] of 0.15 µg/mL (≈ 0.489 µM) and an MIC [3] of 0.22 µg/mL (≈ 0.717 µM). The “Vero Tox CC50” value ([4]; African green monkey, 72 h) was 1.1 µg/mL.

CCNc1n[n+]([O-])c2cc(Br)ccc2[n+]1[O-] [Compound 15ca, 7-bromo-3-(ethylamino)benzo[e][1,2,4]triazine 1,4-dioxide] gave an MIC ([1]; NRP Mtb, Tables 1-4 and text) of 0.46 µg/mL (≈ 1.61 µM), an MIC [2] of 0.62 µg/mL (≈ 2.17 µM) and an MIC [3] of 0.49 µg/mL (≈ 1.72 µM). For the same molecule, the “Vero Tox CC50” value ([4]; African green monkey, 72 h) was 4.2 µg/mL.

For [O-][n+]1nc(NC2CCC2)[n+]([O-])c2ccc(Br)cc21 [Compound 15cd, 7-bromo-3-(cyclobutylamino)benzo[e][1,2,4]triazine 1,4-dioxide], the MIC ([1]; NRP Mtb, Tables 1-4 and text) was 0.41 µg/mL (≈ 1.32 µM), the MIC [2] was 0.15 µg/mL (≈ 0.482 µM) and the MIC [3] was 0.46 µg/mL (≈ 1.48 µM). The “Vero Tox CC50” value ([4]; African green monkey, 72 h) was 3.8 µg/mL.

Molecule [O-][n+]1nc(NC2CCCC2)[n+]([O-])c2ccc(Br)cc21 [Compound 15ce, 7-bromo-3-(cyclopentylamino)benzo[e][1,2,4]triazine 1,4-dioxide] has an MIC ([1]; NRP Mtb, Tables 1-4 and text) of 0.46 µg/mL (≈ 1.41 µM), an MIC [2] of 0.15 µg/mL (≈ 0.461 µM) and an MIC [3] of 0.35 µg/mL (≈ 1.08 µM). The “Vero Tox CC50” value ([4]; African green monkey, 72 h) was 18 µg/mL.

[O-][n+]1nc(N[C@@H]2C[C@H]3CC[C@@H]2C3)[n+]([O-])c2ccc(Br)cc21 [Compound 15cm, 3-((1R,2R,4S)-bicyclo[2.2.1]heptan-2-ylamino)-7-bromobenzo[e][1,2,4]triazine 1,4-dioxide] was tested, and the MIC ([1]; NRP Mtb, Tables 1-4 and text) was 0.41 µg/mL (≈ 1.17 µM), the MIC [2] was 0.31 µg/mL (≈ 0.883 µM) and the MIC [3] was 0.36 µg/mL (≈ 1.03 µM). For the same molecule, the “Vero Tox CC50” value ([4]; African green monkey, 72 h) was 0.80 µg/mL.

Work on COc1ccc2c(c1)[n+]([O-])nc(NC1CCC1)[n+]2[O-] [Compound 15dd, 3-(cyclobutylamino)-7-methoxybenzo[e][1,2,4]triazine 1,4-dioxide] yielded an MIC ([1]; NRP Mtb, Tables 1-4 and text) of 0.9 µg/mL (≈ 3.43 µM), an MIC [2] of 0.62 µg/mL (≈ 2.36 µM) and an MIC [3] of 0.96 µg/mL (≈ 3.66 µM). The “Vero Tox CC50” value ([4]; African green monkey, 72 h) was 9.8 µg/mL.

COc1ccc2c(c1)[n+]([O-])nc(N[C@@H]1C[C@H]3CC[C@@H]1C3)[n+]2[O-] [Compound 15dm, 3-((1R,2R,4S)-bicyclo[2.2.1]heptan-2-ylamino)-7-methoxybenzo[e][1,2,4]triazine 1,4-dioxide] was tested, and the MIC ([1]; NRP Mtb, Tables 1-4 and text) was 1.6 µg/mL (≈ 5.29 µM), the MIC [2] was 0.62 µg/mL (≈ 2.05 µM) and the MIC [3] was 0.97 µg/mL (≈ 3.21 µM). For the same molecule, the “Vero Tox CC50” value ([4]; African green monkey, 72 h) was >50 µg/mL.
